Data from patent publication US20230393140A1, “BINDING ASSAYS INVOLVING A PLURALITY OF SYNTHETIC COMPOUNDS, TARGETS, AND COUNTER TARGETS” (SRI International, priority 2020, published 2023).
pKd: −log10 of the molar value. Like-named read-outs stand apart in the source and are kept apart here. Marks after values point to notes of the source that are not given here. Numbered stars: 1 amine (or outer) side, 2 acyl side, 3 side chain; on linkers, the order of the positions; unused ones are H or OH. Square brackets hold non-standard residues; d marks the D form. Ends that are not written are not given here. Peptide text beside a SMILES is read from it. * marks the point of attachment. 5FAM = O=C1OC2(c3ccc(O)cc3Oc3cc(O)ccc32)c2ccc(C(=O)*)cc21; NHCH2C6H4(4-CH2CONH2) = NC(=O)Cc1ccc(CN*)cc1; X1 = O=C(Cc1ccc(CN[*:1])cc1)[*:2]

What was measured:
[1] = type: in vitro ADME; settings: 17 h
Method: For human plasma stability, lyophilized human plasma was reconstituted in sterile water for injection, aliquoted into 200 uL aliquots and stored frozen at −80 degrees C. prior to the stability studies. For the stability studies three aliquots per NNP were thawed at room temperature. An additional set of three aliquots for a positive control peptide (Angiotensin I) were also thawed. The incubations for the plasma stability were initiated by mixing 2 uL of a 2 mM stock solution of NNP IL6R-87-8 or positive control in DMSO with the 200 uL thawed plasma aliquot. After briefly vortex-mixing, 50 uL zero-time-point samples were removed, mixed with 50 uL of water and 400 uL of acetonitrile and frozen on dry ice until all time point samples had been collected. The samples were incubated at 37 degrees C. with samples removed and water/acetonitrile added at 1 hour, 3 hours, and 17 hours. Proteins were precipitated by centrifuging the samples at 17,000 G, 4 degrees C. for 1 hour. The supernatants were removed and concentrated in a centrifugal vacuum concentrator (GeneVac Genie II) at 45 degrees C. until the volume had been reduced to around 60 uL. […]

[2] = system: biotinylated GST; assay: Interference check with biotinylated GST and detection mix
From the text: Table 20 below provides an interference check on the synthetic compounds using biotinylated GST, which was used with the detection mix to check for compound effect on fluorescence.

[3] = biological target: T1, K-Ras-Raf interaction (Homo sapiens, UniProt P01116, G12V); assay: K-Ras/Raf inhibition assay (MST competition binding); settings: NNP at 1 μM pre-incubated with K-Ras 15 minutes at room temperature, then Raf titration
T1 construct: purchased Cytoskeleton Inc. (K-Ras); Jena Bioscience (Raf-RBD) CS-RS04; PR-305
Method: This was tested on an MST competition binding assay (see FIG. 11A).
Loading was performed according to the following protocol: The 200 μM stock solution of the target protein was diluted to 10 μM in 20 mM HEPES pH 8.0, 150 mM NaCl, 10 mM MgCl2, 1 mM TCEP, 0.05% Tween-20 (total volume 110 μL). 10 μL were set aside for later labeling quality control. EDTA pH 8.0 (stock concentration 10 mM) was added to the protein solution to a final concentration of 80 μM. GTP (stock concentration 50 mM) was added to the protein solution to a final concentration of 750 μM. The solution was incubated at 30° C. for 2 hours (PCR tube) and then placed on ice for 2 minutes. MgCl2 was added to the protein solution to a final concentration of 100 mM. The resulting protein solution was buffer exchanged into the buffer required in the labeling kit for labeling. […] All the other target molecules (TNFα, IL-6, IL-6R and ASGPR) were used as received without any additional treatment.
Loading of K-Ras with the GTP was performed according to the protocol detailed above (Activation of K-Ras by GTP loading). After the GTP loading the resulting protein solution was buffer exchanged into 100 mM HEPES pH 6.5, 5 mM MgCl2, 50 mM NaCl, 1 mM TCEP.

[4] = biological target: T2, cRaf/K-Ras (G12V) PPI (Homo sapiens, UniProt P01116, G12V); assay: K-Ras-cRaf HTRF-based PPI profiling; type: biochemical; settings: for HillSlope: curve fit of % binding, K-Ras G12V 30 nM, GST-cRaf 10 nM; for blank corrected HTRF: raw data, compounds without fluorescein;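 on blank corrected HTRF: background is the signal of wells with all components except cRaf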
T2 construct: b-Kras G12V (GppNHp) (aa 2-169); biotin (b-
How it was run: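 K-Ras(G12V) pre-incubated 30 min at room temperature with compound in 20 mM HEPES pH 7.4, 150 mM NaCl, 5 mM MgCl2, 1 mM DTT, 0.005% NP40, 1% DMSO, then cRaf added. HTRF read via anti-GST-Tb cryptate/streptavidin-XL665. % binding is relative to DMSO controls; curves fitted only if activity at top concentration fell below 65%.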

[5] = biological target: T3, K-Ras (Homo sapiens, UniProt P01116, G12V); assay: MST binding affinity of resynthesized NNP hits to K-Ras; settings: for pKd: read-out: KD of K-Ras hits by MST
T3 construct: purchased Cytoskeleton Inc. CS-RS04
How it was run: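 K-Ras G12V was GTP-loaded (EDTA exchange, 750 μM GTP, 2 h at 30° C, then MgCl2) and labeled with maleimide-647 dye. MST was run at room temperature in 20 mM HEPES pH 7.4, 150 mM NaCl, 10 mM MgCl2, 0.05% Tween-20, 1 mM DTT. Incubations lasted 15, 30 and 45 min; triplicate data fitted for affinity.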

[6] = biological target: T4, K-Ras-CF555 versus Raf-AF647 (Homo sapiens, UniProt P01116, G12V); assay: On-bead FAST/ADM competition screen, MFI of target and counter target; type: binding; settings: hit bead in primary competition screen
T4 construct: purchased Cytoskeleton Inc. (K-Ras); Jena Bioscience (Raf-RBD) CS-RS04; PR-305

[7] = K-Ras, compound with fluorescein on N-term, read-out: KD[nM] in MST (with fluorescein on N-term)
[8] = read-out: KD (nM) [95% conf. int], MST, NNP1 library hit, target K-Ras, one-site binding model

Molecule | % signal compared to DMSO ([2]; assay conc. 0.000508053 μM) [%] | % signal compared to DMSO ([2]; assay conc. 0.001524158 μM) [%] | % signal compared to DMSO ([2]; assay conc. 0.004572474 μM) [%] | % signal compared to DMSO ([2]; assay conc. 0.013717421 μM) [%] | % signal compared to DMSO ([2]; assay conc. 0.041152263 μM) [%] | % signal compared to DMSO ([2]; assay conc. 0.12345679 μM) [%] | % signal compared to DMSO ([2]; assay conc. 0.37037037 μM) [%] | % signal compared to DMSO ([2]; assay conc. 1.111111111 μM) [%] | % signal compared to DMSO ([2]; assay conc. 3.333333333 μM) [%] | % signal compared to DMSO ([2]; assay conc. 10 μM) | Inhibition of K-Ras-Raf PPI [3] | HillSlope [4] | blank corrected HTRF ([4]; conc. 1.00E−05) | blank corrected HTRF ([4]; conc. 1.11E−06) | blank corrected HTRF ([4]; conc. 3.33E−06) | blank corrected HTRF ([4]; conc. 3.70E−07) | blank corrected HTRF ([4]; conc. 4.12E−08) | blank corrected HTRF ([4]; conc. 4.57E−09) | blank corrected HTRF ([4]; conc. 5.08E−10) | pKd [5] | other results
DRVYIHPFHL [Angiotensin I, reference compound] | – | – | – | – | – | – | – | – | – | – | – | – | – | – | – | – | – | – | – | – | Stability in human plasma [1]: completely degraded within four hours
CC(C)C[C@H](NC(=O)[C@@H](C)NC(=O)[C@@H](CCC(=O)O)NC(=O)[C@H](NC(=O)[C@@H](CCCCN)NC(=O)Cc1ccc(CNC(=O)[C@H](C)NC(=O)[C@@H](CCCNC(=N)N)NC(=O)[C@H]2CCCN2C(=O)[C@H](NC(=O)CNC(=O)Cc2ccc(CNC(=O)[C@H](Cc3ccccc3)NC(=O)[C@@H](CO)NC(=O)[C@@H](CCC(=O)O)NC(=O)[C@H]3CCCN3C(=O)[C@@H](CC(C)C)NC(=O)c3ccc4c(c3)C(=O)OC43c4ccc(O)cc4Oc4cc(O)ccc43)cc2)C(C)C)cc1)[C@H](C)O)C(=O)NCc1ccc(CC(=O)N[C@H](Cc2ccc(O)cc2)C(=O)N[C@@H](C(=O)N2CCC[C@@H]2C(=O)N[C@H](CCCNC(=N)N)C(=O)N[C@@H](C)C(=O)NCc2ccc(CC(=O)N3CCC[C@@H]3C(=O)NCC(=O)N[C@H](CCCNC(=N)N)C(=O)N[C@H](Cc3c[nH]c4ccccc34)C(=O)NCC(=O)NCc3ccc(CC(=O)NCC(=O)N[C@H](Cc4c[nH]c5ccccc45)C(=O)N[C@H](Cc4c[nH]cn4)C(=O)N[C@H](CCCNC(=N)N)C(=O)N[C@@H](C)C(=O)NCc4ccc(CC(N)=O)cc4)cc3)cc2)[C@H](C)O)cc1 [KRAS-1-13] (5FAM-[dL][dP][dE][dS]F[X1]G[dV][dP][dR]A[X1][dK][dT][dE][dA]L[X1][dY][dT][dP][dR]A[X1][dP]G[dR][dW]G[X1]G[dW][dH][dR]A-{NHCH2C6H4(4-CH2CONH2)}) | 101.8 | 103.1 | 102.8 | 101.9 | 102.1 | 100.3 | 100.4 | 94.53 | 80.42 | 62.38* % | partial inhibition | −0.821 | 3798 | 8379 | 3957 | 9542 | 14025 | 13413 | 5044 | 7.52 | blank corrected HTRF ([4]; conc. 1.52E−09): 13665; Kd [5, 7]: 30 nM; Kd [5, 8]: 30 nM
CC(C)C[C@@H](NC(=O)[C@@H](Cc1ccc(O)cc1)NC(=O)[C@H]1CCCN1C(=O)[C@@H](CO)NC(=O)Cc1ccc(CNC(=O)CNC(=O)[C@@H](Cc2c[nH]c3ccccc23)NC(=O)[C@@H](CCCNC(=N)N)NC(=O)CNC(=O)[C@H]2CCCN2C(=O)Cc2ccc(CNC(=O)[C@H](C)NC(=O)[C@@H](CCCNC(=N)N)NC(=O)[C@H]3CCCN3C(=O)[C@H](NC(=O)[C@@H](Cc3ccc(O)cc3)NC(=O)Cc3ccc(CNC(=O)[C@H](Cc4ccccc4)NC(=O)[C@@H](CO)NC(=O)[C@@H](CCCNC(=N)N)NC(=O)[C@H]4CCCN4C(=O)CNC(=O)Cc4ccc(CNC(=O)[C@H](C)NC(=O)[C@@H](CCCNC(=N)N)NC(=O)[C@H]5CCCN5C(=O)[C@H](NC(=O)CNC(=O)Cc5ccc(CNC(=O)[C@@H](NC(=O)[C@@H](Cc6ccc(O)cc6)NC(=O)[C@@H](Cc6c[nH]cn6)NC(=O)[C@H]6CCCN6C(=O)[C@@H](Cc6c[nH]c7ccccc67)NC(=O)c6ccc7c(c6)C(=O)OC76c7ccc(O)cc7Oc7cc(O)ccc76)C(C)C)cc5)C(C)C)cc4)cc3)[C@H](C)O)cc2)cc1)C(=O)N[C@@H](C)C(=O)NCc1ccc(CC(N)=O)cc1 [KRAS-1-8] (5FAM-[dW][dP][dH][dY]V[X1]G[dV][dP][dR]A[X1]G[dP][dR][dS]F[X1][dY][dT][dP][dR]A[X1][dP]G[dR][dW]G[X1][dS][dP][dY][dL]A-{NHCH2C6H4(4-CH2CONH2)}) | 99.94 | 102.4 | 103 | 98.33 | 87.69 | 97.53 | 93.95 | 81.88 | 68.53 | 56.45* % | complete inhibition | −0.6222 | 7296 | 10835 | 9028 | 12171 | 15230 | 14396 | 13397 | 7.36 | blank corrected HTRF ([4]; conc. 1.37E−08): 15117; Kd [5, 7]: 44 nM; Kd [5, 8]: 44 nM
CC(C)C[C@@H](NC(=O)c1ccc2c(c1)C(=O)OC21c2ccc(O)cc2Oc2cc(O)ccc21)C(=O)N1CCC[C@@H]1C(=O)N[C@H](CCC(=O)O)C(=O)N[C@H](CO)C(=O)N[C@@H](Cc1ccccc1)C(=O)NCc1ccc(CC(=O)NCC(=O)N[C@@H](C(=O)N2CCC[C@@H]2C(=O)N[C@H](CCCNC(=N)N)C(=O)N[C@@H](C)C(=O)NCc2ccc(CC(=O)N3CCC[C@@H]3C(=O)N[C@H](CO)C(=O)N[C@H](CCC(=O)O)C(=O)N[C@H](CCCNC(=N)N)C(=O)NCC(=O)NCc3ccc(CC(=O)N4CCC[C@@H]4C(=O)N[C@H](CCCCN)C(=O)N[C@H](Cc4ccc(O)cc4)C(=O)N[C@H](CCCNC(=N)N)C(=O)N[C@@H](Cc4ccccc4)C(=O)NCc4ccc(CC(=O)N[C@H](CCCNC(=N)N)C(=O)N[C@H](Cc5ccc(O)cc5)C(=O)N[C@@H](C(=O)N[C@H](CCC(=O)O)C(=O)N[C@@H](C)C(=O)NCc5ccc(CC(=O)N[C@H](Cc6ccc(O)cc6)C(=O)N6CCC[C@@H]6C(=O)N[C@H](CCCNC(=N)N)C(=O)N[C@H](CCC(=O)O)C(=O)NCC(=O)NCc6ccc(CC(N)=O)cc6)cc5)[C@H](C)O)cc4)cc3)cc2)C(C)C)cc1 [KRAS-1-4] (5FAM-[dL][dP][dE][dS]F[X1]G[dV][dP][dR]A[X1][dP][dS][dE][dR]G[X1][dP][dK][dY][dR]F[X1][dR][dY][dT][dE]A[X1][dY][dP][dR][dE]G-{NHCH2C6H4(4-CH2CONH2)}) | – | – | – | – | – | – | – | – | – | – | no inhibition | – | – | – | – | – | – | – | – | 7.44 | MFI ratio of the target (K-Ras-CF555) to the counter target (Raf-AF647) for the hit beads [6]: 1.89
